Experimental findings from US7582652B2, “Kinase inhibitors” (Eli Lilly and Company, priority 2004, dated 2009) are described below.

Structures are written as SMILES.

The test system of test [1] is TNF-α. The test is described as follows: Inhibition of TNF-α in vivo (LPS-challenged mice). The conditions noted are these: p.o., LPS 5 mg/kg i.v. after 2 h, serum 1 h after LPS. Details: species or system female Balb/c mice. The method, then: Compounds are administered p.o. (100, 30, 10 and 3 mg/kg) to female Balb/c mice (5 mice/dose). After 2 h, lipopolysaccharide (LPS, E. coli serotype 0111:B4, 5 mg/kg) is administered i.v. in the tail vein of each mouse. One hour after LPS administration the mice are asphyxiated by CO2 inhalation and bled out via cardiac puncture.
TNF-α/Luminex Detection Assay (Bio-Rad Bio-Plex Kit—Catalog #171-G12221)
Reconstitute the lyophilized premixed TNF-α standard (1 standard tube/two 96-well plates) with 50 μL sterile water (500,000 pg/mL). Gently vortex for 5 seconds, incubate on ice for 30 min, and vortex for 5 seconds before use. Label a set of twelve 1.5 mL tubes with #1-thru #12 and then add the amounts of cell media shown below to the appropriate tubes (standard concentrations are as follows: 50,000; 25,000; 12,500; 6,250; 3,125; 1,562.5; 781.3; 390.6; 195.3; 97.7; 48.8; and 24.4 pg/mL). Vortex the premixed anti-cytokine conjugated beads (25×) vigorously for 30 seconds. Dilute the anti-cytokine conjugated beads to a 1× concentration using 1× Bio-Plex Assay Buffer. […] Read standards and samples on Luminex machine. These intensity readings are then converted to picogram/milliliter units based on a 12-point standard curve created in duplicate using a four-parameter logistic regression method (Bio-Plex Manager 2.0, Bio-Rad), and the IC50 calculated. […]

Test [2] concerns MAPKAP-K2 phosphorylation in B16F10 melanoma tumors. The test is described as follows: B16F10 melanoma target (MAPKAP-K2 phosphorylation). The conditions noted are these: p.o., B16F10 tumors in mice, MAPKAP-K2 phosphorylation by immuno-blot. In kind it is in vivo, C57B16 mice. The procedure:
B16F10 Melanoma Target (MAPKAP-K2 Phosphorylation)
The B16F10 melanoma cell line is obtained from the American Type Culture Collection, Rockville, Md. The cells are cultured in RPMI-1640 medium supplemented with 10% fetal calf serum. The cells grown in vitro are harvested during their exponential growth phase by gentle trypsinization, washed twice in medium, and resuspended in serum-free RPMI-1640 medium. The number of viable cells is determined using a hemocytometer and adjusted to 1×10^7/mL. Tumor cells are injected subcutaneously in normal C57B16 mice. Inoculum volume per mouse is 0.2 mL (2,000,000 cells). When the tumors reach 300-500 mg, the mice are used for target inhibition studies at either a fixed time (2.5 hours) after p.o. compound treatment or pharmacodynamic studies where the tumors are collected at multiple time-points (e.g., 3, 6, 9, 12, 15, and 18 h) after p.o. compound treatment.
Protein Extraction and Immuno-Blot Analysis
Tumors collected as described above are immediately snap-frozen in liquid nitrogen and stored at −80° C. […] The supernatant is transferred to fresh prechilled microfuge tubes and protein concentrations are measured using Bio-Rad protein assay reagents using bovine serum albumin as protein standard.
Protein extracts are equalized with the extraction buffer. […] Protein bands of interest are quantified from films using Kodak Image Station 1000.

As to `CC(C)(C)Cn1c(N)nc2ccc(-c3nc(C(C)(C)C)[nH]c3-c3ccc(F)cc3)nc21.CS(=O)(=O)O.CS(=O)(=O)O` [EXAMPLE 104, Crystalline 5-[2-tert-Butyl-5-(4-fluoro-phenyl)-1H-imidazol-4-yl]-3-(2,2-dimethyl-propyl)-3H-imidazo[4,5-b]pyridin-2-ylamine dimethanesulfonate], the “IC50 (suppressed TNF-α in vivo)” value in test [1] was < 1 mg/kg. In addition, the TMED50 in test [2] is recorded as 3.59 mg/kg.
